Results on 13 compounds are retold here after patent EP2402327B1, “Acetamide compounds as glucokinase activators, their process and medicinal applications” (Impetis Biosciences Ltd., priority 2010, dated 2012).

The target in series [1] is T1, purified human recombinant GK (Homo sapiens, UniProt P35557).
T1 sequence (P35557 1-465): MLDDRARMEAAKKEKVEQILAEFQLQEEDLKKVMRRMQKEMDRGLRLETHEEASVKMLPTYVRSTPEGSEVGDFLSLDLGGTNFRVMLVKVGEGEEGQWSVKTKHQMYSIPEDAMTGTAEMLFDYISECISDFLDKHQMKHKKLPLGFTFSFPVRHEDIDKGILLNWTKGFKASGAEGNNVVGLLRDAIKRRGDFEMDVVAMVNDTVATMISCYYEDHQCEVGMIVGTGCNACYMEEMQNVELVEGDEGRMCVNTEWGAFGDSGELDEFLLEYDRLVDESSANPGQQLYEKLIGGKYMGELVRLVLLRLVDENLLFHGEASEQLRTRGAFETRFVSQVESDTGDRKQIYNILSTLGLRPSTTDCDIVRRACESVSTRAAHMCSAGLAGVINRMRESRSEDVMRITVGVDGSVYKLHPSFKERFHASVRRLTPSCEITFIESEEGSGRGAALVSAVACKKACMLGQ
The series can be described thus: Glucokinase activity assay (coupled enzymatic assay with G6PD, NADH absorbance at 340 nm). Type of series: biochemical. The conditions noted are these: for EC50: EC50 of % change in S0.5 (% ΔS0.5) of glucokinase for glucose, sigmoidal fit; for Emax: Emax of % change in S0.5 (% ΔS0.5), vehicle control S0.5 = 0%, 0 mM glucose = 100%. The text has this: The glucokinase (GK) assay is a coupled enzymatic assay. GK catalyzes the first step of glycolysis, the conversion of glucose to glucose-6-phosphate (G6P) in the presence of ATP. G6P in turn is converted by glucose-6-phosphate dehydrogenase (G6PD) to 6-phosphogluconate, a process that requires NAD, resulting in NADH formation. Since the GK-catalyzed step is the rate-limiting step of this coupled enzymatic process, the rate of accumulation of 6-phosphogluconate and NADH is directly proportional to the rate of glucose phosphorylation by GK. The rate of the GK-catalyzed reaction can therefore be measured by monitoring the increase in NADH absorbance at 340 nm.
The assay is carried out according to the protocol outlined in Hariharan et al (1997), Diabetes 46: 11-16. Briefly, the test compounds are incubated in a reaction mix containing 25 mM HEPES (pH 7.2), 10 mM MgCl2, 100 mM KCl, 5 mM ATP, 2 mM DTT, 0.5 mM NAD, 1 U/ml Leuconostoc mesenteroides G6PD, 0.3 U/ml of purified human recombinant GK, and different concentrations of glucose. Enzymatic activity is calculated from the initial reaction velocity, measured from the change in NADH absorbance as a function of time.
Compounds described in formula (I), in concentration ranges from 1.0 nM to 500 µM, are tested in the purified human recombinant glucokinase assay described above.
A compound is considered to be a glucokinase activator if it, in its testable range of concentrations, yields a higher rate of glucose phosphorylation than in its absence at a particular glucose concentration, for example at 5 mM glucose.
Compounds of general formula (I) are tested in the in vitro GK enzymatic assay to monitor dose-dependent effect on glucokinase activation (in kinetic mode), as described above, at various glucose concentrations. The S0.5 of glucokinase for glucose at different concentration of each compound of interest is calculated from the following modified version of the Michaelis-Menten equation, V = Vmax [S]^n/(S0.5^n + [S]^n), where [S] is the glucose concentration and n is the Hill coefficient (taken as 1.7 to account for the sigmoidal kinetics of glucokinase with respect to glucose). The S0.5 is plotted against the log of the compound concentration. The change in the S0.5 of glucokinase (ΔS0.5) for glucose is calculated by subtracting the S0.5 at each concentration of the compound from the S0.5 in the vehicle control. The ΔS0.5 is then normalized to a percent scale, where the S0.5 in the vehicle control is set to 0% and 0 mM glucose is set to 100%. The % ΔS0.5 is then plotted against the log of the compound concentration. The EC50 and Emax of % change in S0.5 is obtained from the sigmoidal fit of the data. Detailed protocol has been described in our copending application no. 409/CHE/2007 which is incorporated herein by reference. Characterization data of some representative glucokinase activators of the present disclosure, which are illustrative but not limiting, are given in table I below.
The glucokinase activation data of some representative compounds of the present disclosure, which are illustrative but not to be construed as limiting the scope or spirit of the disclosure, are given in the table I below. Table I: EC50 and Emax (with respect to % ΔS0.5) of GK activators

The next series relates to primary rat hepatocytes. The series can be described thus: Measurement of glycogen synthesis in primary rat hepatocytes. The class given is cell-based, male Wistar rats. The conditions noted are these: 10 µM compound, 10 mM glucose, 3 hours at 37°C, fold increase over DMSO control. The procedure: Primary hepatocytes are collected from male Wistar rats, and tested for viability by trypan blue exclusion. Primary hepatocytes cultures with viability greater than 95% are selected for the glycogen synthesis assay. The cells are seeded in a 48-well plate at a density of 200,000 cells/well in 250 µl Minimal Essential Medium (MEM) containing 10% foetal calf serum (FCS) and 1.7 µM insulin, and incubated for 4 hours at 37°C to allow attachment. The medium is replaced with fresh MEM containing 10% FCS, 1.7 µM insulin and 10 nM dexamethasone, and the cells are incubated for 16 hours at 37°C. The medium is then replaced with fresh MEM (serum-free) containing 2 µCi/ml of D-[U^14C]-Glucose along with 10 µM of the compound in a final DMSO concentration of 0.1%. The final glucose concentration is brought to 10 mM by the addition of D-Glucose (MEM already contains 5 mM glucose). The cells are incubated for 3 hours at 37°C. The cells are washed twice with 150 mM NaCl, lysed with 0.1 N NaOH, and the lysate precipitated with 8% w/v trichloroacetic acid (TCA) and 1 mg/well unlabeled glycogen as carrier. Cell debris is pelleted by centrifugation, the supernatant is removed, and the glycogen is precipitated with 63% ethanol. After another round of centrifugation, the supernatant is removed, and the pellet containing the precipitated glycogen is dried overnight. De novo synthesized glycogen is estimated in a scintillation counter (MicroBeta Trilux, Perkin Elmer), and expressed as fold increase over DMSO control.
The protocol for the glycogen assay is based on the method described in "Biochem J. 1990 Feb 15; 266(1): 91-102" with a few minor modifications. The protocol for isolation of primary rat hepatocytes is based on the method described in "Methods in Enzymology, Vol. III. pp 34-50. Ed. by S.P. Colowick and N.O. Kaplan. New York, Academic Press, 1957" with a few minor modifications.
Compounds described in formula (I), in concentration ranges from 1.0 nM to 500 µM, are tested in glycogen synthesis assay described above. […]

For series [2] the following is noted: cited from earlier work.

As for `O=C(O)c1ccc(Oc2cnc(NC(=O)C(OC3CCOCC3)c3ccc(S(=O)(=O)C4CC4)cc3)s2)cc1` (single isomer, unassigned; (+)) [Example D4A, (+) 4-{2-[2-(4-Cyclopropanesulfonylphenyl)-2-(tetrahydro-pyran-4-yloxy)-acetylamino]-thiazol-5-yloxy}-benzoic acid], in series [1], the EC50 is 69 nM and the Emax is 92%.

On to `O=C(O)c1ccc(Oc2cnc(NC(=O)C(OC3CCOCC3)c3ccc(S(=O)(=O)C4CC4)cc3)s2)c(F)c1` (stereo not shown) [Example B34, 4-{2-[2-(4-Cyclopropanesulfonyl-phenyl)-2-(tetrahydropyran-4-yloxy)-acetylamino]-thiazol-5-yloxy}-3-fluorobenzoic acid], for which, in series [1], the EC50 was determined as 45 nM and the Emax came to 91%.

Regarding `O=C(O)c1ccc(Oc2cnc(NC(=O)C(Oc3ccc(F)cc3F)c3ccc(S(=O)(=O)C4CC4)cc3)s2)cc1` (single isomer, unassigned; (+)) [Example D11A, (+)4-{2-[2-(4-Cyclopropanesulfonylphenyl)-2-(2,4-difluoro-phenoxy)-acetylamino]-thiazol-5-yloxy}-benzoic acid], in series [1], the EC50 turned out to be 34 nM and the Emax came out at 95%. Further, the “Fold increase in glycogen synthesis at 10 µM” value (shortened to “Fold increase”) with primary rat hepatocytes was 15.5 fold.

With `O=C(Nc1ncc(Oc2ccc(CO)cc2)s1)C(OC1CCOCC1)c1ccc(S(=O)(=O)C2CC2)cc1` (stereo not shown) [Example F1, 2-(4-Cyclopropanesulfonyl-phenyl)-N-[5-(4-hydroxymethyl-phenoxy)-thiazol-2-yl]-2-(tetrahydro-pyran-4-yloxy)-acetamide], in series [1], the EC50 was found to be 100 nM and the Emax worked out at 91%.

Consider `CCOc1ccc2nc(NC(=O)C(OC3CCOCC3)c3ccc(S(=O)(=O)C4CC4)cc3)sc2n1` (single isomer, unassigned; (+)) [Example D10A, (+)2-(4-Cyclopropanesulfonyl-phenyl)-N -(5-ethoxy-thiazolo[5,4-b]pyridin-2-yl)-2-(tetrahydro-pyran-4-yloxy)-a Cetamide], for which, in series [1], the EC50 came to 54 nM and the Emax stood at 92%.

`COc1ccc2nc(NC(=O)C(OC3CCOCC3)c3ccc(S(=O)(=O)C4CC4)cc3)sc2n1` (single isomer, unassigned; (+)) [Example D9A, (+)2-(4-Cyclopropanesulfonyl-phenyl)-N -(5-methoxy-thiazolo[5,4-b]pyridin-2-yl)-2-(tetrahydro-pyran-4-yloxy)-Acetamide]: in series [1], the EC50 was 68 nM and the Emax was found to be 95%.

Consider `O=C(O)c1ccc(Oc2cnc(NC(=O)C(O[C@@H]3CCOC3)c3ccc(S(=O)(=O)C4CC4)cc3)s2)cc1` (single isomer, unassigned) [Example D6A], for which, in series [1], the EC50 is 22 nM and the Emax came to 88%. Besides, the “Fold increase” value in the series on primary rat hepatocytes stood at 11 fold.

Consider `NC(=O)c1cccc(Oc2cnc(NC(=O)C(Oc3ccc(F)cc3F)c3ccc(S(=O)(=O)C4CC4)cc3)s2)c1` (stereo not shown) [Example C6, 3-{2-[2-(4-Cyclopropanesulfonyl-phenyl)-2-(2,4-difluorophenoxy)-acetylamino]-thiazol-5-yloxy}-benzamide], for which the “Fold increase” value in the series with primary rat hepatocytes stood at 13.5 fold.

As to Ro-28-1675, the hypoglycemia result in series [2] (animal efficacy models, Kamata, K. et al (2004) Structure 12: 429-438) is given as “cause hypoglycemia”.

Regarding `O=C(O)c1ccc2nc(NC(=O)C(OC3CCOCC3)c3ccc(S(=O)(=O)C4CC4)cc3)sc2c1` (stereo not shown) [Example B41, 2-[2-(4-Cyclopropanesulfonyl-phenyl)-2-(tetrahydro-pyran-4-yloxy)-acetylamino]-benzothiazole-6-carboxylic acid], in series [1], the EC50 was 100 nM and the Emax was found to be 75%.

On to `O=C(Nc1ncc(Oc2ccc(-c3nn[nH]n3)cc2)s1)C(OC1CCOCC1)c1ccc(S(=O)(=O)C2CC2)cc1` (stereo not shown) [Example E1, 2-(4-Cyclopropanesulfonyl-phenyl)-2-(tetrahydro-pyran-4-yloxy)-N-{5-[4-(2H-tetrazol-5-yl)-phenoxy]-thiazol-2-yl}-acetamide], for which, in series [1], the 50% effective concentration (EC50) was found to be 99 nM and the Emax was found to be 88%.

On to `O=C(Nc1ncc(F)s1)[C@H](CC1CCOCC1)c1ccc(S(=O)(=O)C2CC2)cc1` [PSN-GK1], for which the hypoglycemic potential entry in series [2] (at higher dose, Fyfe, M. C. T. (2007) Diabetologia, 50: 1277-1287) was “hypoglycemic potential is seen”.

On to `O=C(Nc1nc2cccnc2s1)C(Oc1ccc(F)cc1F)c1ccc(S(=O)(=O)N2CCCCC2)cc1` (single isomer, unassigned; (-)) [Example D1A, (-)2-(2,4-Difluoro-phenoxy)-2-[4-(piperidine-1-sulfonyl)-phenyl]-N-thiazo lo[5,4-b]pyridin-2-yl-acetamide], for which, in series [1], the EC50 worked out at 84 nM and the Emax was 85%.
